The values that follow come from patent US8106031B2, “Hydrolytically-resistant boron-containing therapeutics and methods of use” (Anacor Pharmaceuticals, Inc., priority 2006, dated 2012).

≈ marks a conversion by molar mass, not a printed value. Like-named read-outs stand apart in the source and are kept apart here.

Series [1] concerns Aspergillus fumigatus. Briefly: MIC against A. fumigatus (NCCLS broth dilution). The following applies: for MIC: Aspergillus fumigatus, read-out: Minimum inhibitory concentration, A. fumigatus. Format: cell-based. From the text: (§1) To determine the antifungal activity of these compounds we screened for their minimum inhibitory concentrations (MIC) against the major dermatophytes that cause onychomycosis, T. rubrum and T. mentagrophytes, and against the yeasts and molds C. albicans, C. neoformans and A. fumigatus to test for their broad spectrum activity. The antifungal agent ciclopirox, currently in use for the topical treatment of onychomycosis, was used as a reference.
(§2) All MIC testing against Trichophyton rubrum, Trichophyton mentagrophytes, Candida albicans, Cryptococcus neoformans and Aspergillus fumigatus were determined following the National Committee for Clinical Laboratory Standards (NCCLS) guidelines for antimicrobial testing of yeasts and filamentous fungi.^i,ii
(§3) Two-fold serial dilutions of the test compounds were prepared in 96-well plates. […] Pfaller M A, Chaturvedi V, Espinel-Ingroff A, Ghannoum M A, Gosey L L, Odds F C, Rex J H, Rinaldi M G, Sheehan D J, Walsh T J, Warnock D W. NCCLS publication M27-A2—Reference Method for Broth Dilution Antifungal Susceptibility Testing of Yeasts; Approved Standard—Second Edition. […] Pfaller M A, Chaturvedi V, Espinel-Ingroff A, Ghannoum M A, Gosey L L, Odds F C, Rex J H, Rinaldi M G, Sheehan D J, Walsh T J, Warnock D W. NCCLS publication M38-A—Reference Method for Broth Dilution Antifungal Susceptibility Testing of Filamentous Fungi; Approved Standard.
In general terms: Dilution methods test growth across graded concentrations, often in twofold steps.

For series [2], the system named is Candida albicans. Put plainly: MIC against C. albicans (NCCLS broth dilution). The following applies: for MIC: Candida albicans, read-out: Minimum inhibitory concentration, C. albicans. Type of series: cell-based.
Description: as §1, §2, §3

Series [3] relates to Trichophyton mentagrophytes. Put plainly: MIC against T. mentagrophytes (NCCLS broth dilution). The following applies: for MIC: Trichophyton mentagrophytes, read-out: Minimum inhibitory concentration, T. mentagrophytes. Format: cell-based.
Description: as §1, §2, §3

The subject of series [4] is Cryptococcus neoformans. Put plainly: MIC against C. neoformans (NCCLS broth dilution). Type of series: cell-based. The following applies: for MIC: Cryptococcus neoformans, read-out: Minimum inhibitory concentration, C. neoformans.
Description: as §1, §2, §3

The subject of series [5] is Trichophyton rubrum. Put plainly: MIC against T. rubrum (NCCLS broth dilution). Type of series: cell-based. The following applies: for MIC: Trichophyton rubrum, read-out: Minimum inhibitory concentration, T. rubrum.
Description: as §1, §2, §3

Setting [6] is: Table 1, over 90% reduction of growth, 24-168 h at 35° C.

As for `OB1OCc2cccc(F)c21` [19n, 1,3-Dihydro-7-fluoro-1-hydroxy-2,1-benzoxaborolane], the MIC turned out to be 4 µg/mL (≈ 26.3 µM) in series [1] (Table 3, 1-hydroxy series (19)); 32 µg/mL (≈ 211 µM) in series [2] (Table 3, 1-hydroxy series (19)); 16 µg/mL (≈ 105 µM) in series [3] (Table 3, 1-hydroxy series (19)); 32 µg/mL (≈ 211 µM) in series [4] (Table 3, 1-hydroxy series (19)); 16 µg/mL (≈ 105 µM) in series [5] (Table 3, 1-hydroxy series (19)).
`Cc1ccc2c(c1)COB2O` [19e, 1,3-Dihydro-1-hydroxy-5-methyl-2,1-benzoxaborole]: the MIC in series [1] (Table 3, 1-hydroxy series (19)) was determined as 2 µg/mL (≈ 13.5 µM); in series [2] (Table 3, 1-hydroxy series (19)), 2 µg/mL (≈ 13.5 µM); in series [3] (Table 3, 1-hydroxy series (19)) it was 4 µg/mL (≈ 27 µM); in series [4] (Table 3, 1-hydroxy series (19)) it was 8 µg/mL (≈ 54.1 µM); in series [5] (Table 3, 1-hydroxy series (19)), 8 µg/mL (≈ 54.1 µM).
For the compound `OB1OCc2cc(F)ccc21` [19b, 1,3-Dihydro-5-fluoro-1-hydroxy-2,1-benzoxaborole], the MIC came out at 0.25 µg/mL (≈ 1.65 µM) in series [1] (setting [6]); 0.5 µg/mL (≈ 3.29 µM) in series [2] (setting [6]); 1 µg/mL (≈ 6.58 µM) in series [3] (setting [6]); 0.25 µg/mL (≈ 1.65 µM) in series [4] (setting [6]); 1 µg/mL (≈ 6.58 µM) in series [5] (setting [6]). In series [1] (Table 3, 1-hydroxy series (19)), the “Minimum inhibitory concentration, A. fumigatus” value came to 0.25 µg/mL (≈ 1.65 µM). Also, the “Minimum inhibitory concentration, C. albicans” value in series [2] (Table 3, 1-hydroxy series (19)) worked out at 0.5 µg/mL (≈ 3.29 µM). Further, the “Minimum inhibitory concentration, T. mentagrophytes” value in series [3] (Table 3, 1-hydroxy series (19)) came to 1 µg/mL (≈ 6.58 µM). Besides, the “fold increase in activity against C. neoformans” value in series [4] (19a relative to 9a, 19b relative to 9b) amounted to 8 fold. In addition, the “Minimum inhibitory concentration, C. neoformans” value in series [4] (Table 3, 1-hydroxy series (19)) stood at 0.25 µg/mL (≈ 1.65 µM). For the same compound, the “Minimum inhibitory concentration, T. rubrum” value in series [5] (Table 3, 1-hydroxy series (19)) is 1 µg/mL (≈ 6.58 µM).
`Cc1cccc(B2OCc3cc(F)ccc32)c1` [9i, 1,3-Dihydro-5-fluoro-1-(3-methylphenyl)-2,1-benzoxaborole] registered a melting point of 48 to 49 °C. Also, the MIC in series [1] (Table 2, 1-phenyl series (9)) is 0.5 µg/mL (≈ 2.21 µM). In addition, the MIC in series [2] (Table 2, 1-phenyl series (9)) is 1 µg/mL (≈ 4.42 µM). For the same compound, the MIC in series [3] (Table 2, 1-phenyl series (9)) stood at 4 µg/mL (≈ 17.7 µM). Further, in series [4] (Table 2, 1-phenyl series (9)), the MIC was found to be 0.5 µg/mL (≈ 2.21 µM). In series [5] (Table 2, 1-phenyl series (9)), the MIC was 2 µg/mL (≈ 8.85 µM).
On to `OB1OCc2cc(Cl)ccc21` [19d, 5-Chloro-1,3-dihydro-1-hydroxy-2,1-benzoxaborole], for which the MIC in series [1] (Table 3, 1-hydroxy series (19)) came out at 1 µg/mL (≈ 5.94 µM); in series [2] (Table 3, 1-hydroxy series (19)), 1 µg/mL (≈ 5.94 µM); in series [3] (Table 3, 1-hydroxy series (19)), 2 µg/mL (≈ 11.9 µM); in series [4] (Table 3, 1-hydroxy series (19)), 2 µg/mL (≈ 11.9 µM); in series [5] (Table 3, 1-hydroxy series (19)) it was 1 µg/mL (≈ 5.94 µM).
As for `OB1OCc2ccc(F)cc21` [19m, 1,3-Dihydro-6-fluoro-1-hydroxy-2,1-benzoxaborole], the MIC in series [1] (Table 3, 1-hydroxy series (19)) is 8 µg/mL (≈ 52.7 µM); in series [2] (Table 3, 1-hydroxy series (19)), 16 µg/mL (≈ 105 µM); in series [3] (Table 3, 1-hydroxy series (19)), 32 µg/mL (≈ 211 µM); in series [4] (Table 3, 1-hydroxy series (19)) it was 32 µg/mL (≈ 211 µM); in series [5] (Table 3, 1-hydroxy series (19)), 16 µg/mL (≈ 105 µM).
Take “1,3-Dihydro-1-hydroxy-5-trifluoromethoxy-benzoxaborole [19i]”: in series [1] (Table 3, 1-hydroxy series (19)), the “Minimum inhibitory concentration, A. fumigatus” value is greater than 64 µg/mL. Moreover, the “Minimum inhibitory concentration, C. albicans” value in series [2] (Table 3, 1-hydroxy series (19)) was greater than 64 µg/mL. For the same compound, the “Minimum inhibitory concentration, T. mentagrophytes” value in series [3] (Table 3, 1-hydroxy series (19)) is 64 µg/mL. In series [4] (Table 3, 1-hydroxy series (19)), the “Minimum inhibitory concentration, C. neoformans” value is greater than 64 µg/mL. Moreover, the “Minimum inhibitory concentration, T. rubrum” value in series [5] (Table 3, 1-hydroxy series (19)) was found to be 64 µg/mL.
With `Fc1cccc(B2OCc3cc(F)ccc32)c1` [9g, 1,3-Dihydro-5-fluoro-1-(3-fluorophenyl)-2,1-benzoxaborole], the melting point lay within 80 to 82 °C. The MIC in series [1] (Table 2, 1-phenyl series (9)) turned out to be 1 µg/mL (≈ 4.35 µM). The MIC in series [2] (Table 2, 1-phenyl series (9)) amounted to 0.5 µg/mL (≈ 2.17 µM). Also, the MIC in series [3] (Table 2, 1-phenyl series (9)) came to 2 µg/mL (≈ 8.69 µM). The MIC in series [4] (Table 2, 1-phenyl series (9)) worked out at 1 µg/mL (≈ 4.35 µM). The MIC in series [5] (Table 2, 1-phenyl series (9)) was found to be 1 µg/mL (≈ 4.35 µM).
For `OB1OCc2c(F)cccc21` [19l, 1,3-Dihydro-4-fluoro-1-hydroxy-2,1-benzoxaborole], the MIC in series [1] (Table 3, 1-hydroxy series (19)) was 32 µg/mL (≈ 211 µM); in series [2] (Table 3, 1-hydroxy series (19)), 64 µg/mL (≈ 421 µM); in series [3] (Table 3, 1-hydroxy series (19)), 16 µg/mL (≈ 105 µM); in series [4] (Table 3, 1-hydroxy series (19)) it was 32 µg/mL (≈ 211 µM); in series [5] (Table 3, 1-hydroxy series (19)) it was 16 µg/mL (≈ 105 µM).
For the compound `OB1OCc2ccccc21` [19a, 1,3-Dihydro-1-hydroxy-2,1-benzoxaborole], the MIC in series [1] was determined as 2 µg/mL (≈ 14.9 µM); in series [2] it was 2 µg/mL (≈ 14.9 µM); in series [3], 4 µg/mL (≈ 29.9 µM); in series [4] it was 1 µg/mL (≈ 7.47 µM); in series [5], 8 µg/mL (≈ 59.7 µM).

As a reminder, the melting point is the temperature, or range, at which the solid turns liquid.
